Results reported in ChEMBL document CHEMBL3885881, “DrugMatrix”.

Species: Rattus norvegicus
Assay: DrugMatrix - Regimen: Daily Repeat
Format: toxicity, organism-based, Sprague-Dawley
Parameters: regimen Daily Repeat, gender Male, age 6-8 weeks
Conditions: in vivo, po, route oral GAVAGE, vehicle 100 % WATER; for ABSOLUTE BASOPHIL / ABSOLUTE EOSINOPHIL / ABSOLUTE LYMPHOCYTE / ABSOLUTE MONOCYTE / ABSOLUTE SEGMENTED NEUTROPHIL / BASOPHIL / EOSINOPHIL / ERYTHROCYTE COUNT / HEMATOCRIT / HEMOGLOBIN / LEUKOCYTE COUNT / LYMPHOCYTE / MEAN CORPUSCULAR HEMOGLOBIN / MEAN CORPUSCULAR HEMOGLOBIN CONCENTRATION / MEAN CORPUSCULAR VOLUME / MONOCYTE / NEUTROPHIL / NUCLEATED RED BLOOD CELLS / PLATELET COUNT: tissue Blood; for ALANINE AMINOTRANSFERASE / ALBUMIN / ALKALINE PHOSPHATASE / ASPARTATE AMINOTRANSFERASE / BLOOD UREA NITROGEN / CARBON DIOXIDE / CHLORIDE / CHOLESTEROL / CREATINE PHOSPHOKINASE / CREATININE / GLUCOSE / LACTATE DEHYDROGENASE / LIPASE / PHOSPHORUS / SODIUM / TOTAL BILIRUBIN / TOTAL PROTEIN / URIC ACID: tissue Plasma
[1] = 0 mg/kg, 72 h, dose level Control, time 3 day
[2] = 0 mg/kg, 120 h, dose level Control, time 5 day
[3] = 200 mg/kg, 72 h, dose level Low, time 3 day

**Q.** How did the “ABSOLUTE BASOPHIL” value [1] turn out when `CC1(C)S[C@@H]2[C@H](NC(=O)[C@H](N)c3ccc(O)cc3)C(=O)N2[C@H]1C(=O)O` [AMOXICILLIN] was run?
**A.** 0 CELLS/uL

**Q.** What about the “ABSOLUTE EOSINOPHIL” value [1] of the same molecule?
**A.** 25 CELLS/uL

**Q.** And the “ABSOLUTE LYMPHOCYTE” value [1]?
**A.** 14357 CELLS/uL

**Q.** And the “ABSOLUTE MONOCYTE” value [1]?
**A.** 456.33 CELLS/uL

**Q.** What about the “ABSOLUTE SEGMENTED NEUTROPHIL” value [1] of the same molecule?
**A.** 1461.67 CELLS/uL

**Q.** And the BASOPHIL [1]?
**A.** 0%

**Q.** What about the EOSINOPHIL [1] of the same molecule?
**A.** 0.17%

**Q.** What about the “ERYTHROCYTE COUNT” value [1] of the same molecule?
**A.** 5.85 x10E6/uL

**Q.** And the HEMATOCRIT [1]?
**A.** 37.62%

**Q.** And the HEMOGLOBIN [1]?
**A.** 13.87 G/DL

**Q.** What about the “LEUKOCYTE COUNT” value [1] of the same molecule?
**A.** 16.3 x10E3/uL

**Q.** And the LYMPHOCYTE [1]?
**A.** 88%

**Q.** What about the “MEAN CORPUSCULAR HEMOGLOBIN” value [1] of the same molecule?
**A.** 23.68 pg

**Q.** And the “MEAN CORPUSCULAR HEMOGLOBIN CONCENTRATION” value [1]?
**A.** 36.88 G/DL

**Q.** And the “MEAN CORPUSCULAR VOLUME” value [1]?
**A.** 64.23 fL

**Q.** What about the MONOCYTE [1] of the same molecule?
**A.** 2.83%

**Q.** What about the NEUTROPHIL [1] of the same molecule?
**A.** 9%

**Q.** And the “NUCLEATED RED BLOOD CELLS” value [1]?
**A.** 0 /100WBC

**Q.** What about the “PLATELET COUNT” value [1] of the same molecule?
**A.** 1125.33 x10E3/uL

**Q.** And the “ALANINE AMINOTRANSFERASE” value [1]?
**A.** 49.67 u/L

**Q.** What about the ALBUMIN [1] of the same molecule?
**A.** 4.23 G/DL

**Q.** What about the “ALKALINE PHOSPHATASE” value [1] of the same molecule?
**A.** 400.83 u/L

**Q.** What about the “ASPARTATE AMINOTRANSFERASE” value [1] of the same molecule?
**A.** 89.17 u/L

**Q.** And the “BLOOD UREA NITROGEN” value [1]?
**A.** 16 mg/dL

**Q.** And the “CARBON DIOXIDE” value [1]?
**A.** 31.83 mmol/L

**Q.** What about the CHLORIDE [1] of the same molecule?
**A.** 99 MEQ/L

**Q.** And the CHOLESTEROL [1]?
**A.** 76 mg/dL

**Q.** What about the “CREATINE PHOSPHOKINASE” value [1] of the same molecule?
**A.** 777.67 u/L

**Q.** What about the CREATININE [1] of the same molecule?
**A.** 0.22 mg/dL

**Q.** And the GLUCOSE [1]?
**A.** 158.33 mg/dL

**Q.** And the “LACTATE DEHYDROGENASE” value [1]?
**A.** 186.17 u/L

**Q.** What about the LIPASE [1] of the same molecule?
**A.** 9.33 u/L

**Q.** And the PHOSPHORUS [1]?
**A.** 12.95 mg/dL

**Q.** What about the SODIUM [1] of the same molecule?
**A.** 141.53 MEQ/L

**Q.** And the “TOTAL BILIRUBIN” value [1]?
**A.** 0.18 mg/dL

**Q.** And the “TOTAL PROTEIN” value [1]?
**A.** 6.08 G/DL

**Q.** And the “URIC ACID” value [1]?
**A.** 1.77 mg/dL

**Q.** What about the “ABSOLUTE BASOPHIL” value [2] of the same molecule?
**A.** 0 CELLS/uL

**Q.** And the “ABSOLUTE EOSINOPHIL” value [2]?
**A.** 0 CELLS/uL

**Q.** What about the “ABSOLUTE LYMPHOCYTE” value [2] of the same molecule?
**A.** 8994.5 CELLS/uL

**Q.** What about the “ABSOLUTE MONOCYTE” value [2] of the same molecule?
**A.** 122.33 CELLS/uL

**Q.** What about the “ABSOLUTE SEGMENTED NEUTROPHIL” value [2] of the same molecule?
**A.** 666.5 CELLS/uL

**Q.** And the BASOPHIL [2]?
**A.** 0%

**Q.** What about the EOSINOPHIL [2] of the same molecule?
**A.** 0%

**Q.** What about the “ERYTHROCYTE COUNT” value [2] of the same molecule?
**A.** 5.74 x10E6/uL

**Q.** What about the HEMATOCRIT [2] of the same molecule?
**A.** 35.17%

**Q.** What about the HEMOGLOBIN [2] of the same molecule?
**A.** 13.28 G/DL

**Q.** What about the “LEUKOCYTE COUNT” value [2] of the same molecule?
**A.** 9.78 x10E3/uL

**Q.** What about the LYMPHOCYTE [2] of the same molecule?
**A.** 92.33%

**Q.** And the “MEAN CORPUSCULAR HEMOGLOBIN” value [2]?
**A.** 23.15 pg

**Q.** What about the “MEAN CORPUSCULAR HEMOGLOBIN CONCENTRATION” value [2] of the same molecule?
**A.** 37.8 G/DL

**Q.** What about the “MEAN CORPUSCULAR VOLUME” value [2] of the same molecule?
**A.** 61.27 fL

**Q.** And the MONOCYTE [2]?
**A.** 1.33%

**Q.** And the NEUTROPHIL [2]?
**A.** 6.33%

**Q.** What about the “NUCLEATED RED BLOOD CELLS” value [2] of the same molecule?
**A.** 0 /100WBC

**Q.** And the “PLATELET COUNT” value [2]?
**A.** 1117 x10E3/uL

**Q.** And the “ALANINE AMINOTRANSFERASE” value [2]?
**A.** 47.83 u/L

**Q.** What about the ALBUMIN [2] of the same molecule?
**A.** 4.33 G/DL

**Q.** And the “ALKALINE PHOSPHATASE” value [2]?
**A.** 414.5 u/L

**Q.** What about the “ASPARTATE AMINOTRANSFERASE” value [2] of the same molecule?
**A.** 77.5 u/L

**Q.** And the “BLOOD UREA NITROGEN” value [2]?
**A.** 17 mg/dL

**Q.** And the “CARBON DIOXIDE” value [2]?
**A.** 32.33 mmol/L

**Q.** And the CHLORIDE [2]?
**A.** 99.33 MEQ/L

**Q.** And the CHOLESTEROL [2]?
**A.** 76.33 mg/dL

**Q.** What about the “CREATINE PHOSPHOKINASE” value [2] of the same molecule?
**A.** 363.67 u/L

**Q.** And the CREATININE [2]?
**A.** 0.25 mg/dL

**Q.** And the GLUCOSE [2]?
**A.** 173.5 mg/dL

**Q.** And the “LACTATE DEHYDROGENASE” value [2]?
**A.** 129.33 u/L

**Q.** What about the LIPASE [2] of the same molecule?
**A.** 9.17 u/L

**Q.** What about the PHOSPHORUS [2] of the same molecule?
**A.** 11.52 mg/dL

**Q.** What about the SODIUM [2] of the same molecule?
**A.** 143.85 MEQ/L

**Q.** What about the “TOTAL BILIRUBIN” value [2] of the same molecule?
**A.** 0.2 mg/dL

**Q.** What about the “TOTAL PROTEIN” value [2] of the same molecule?
**A.** 6.43 G/DL

**Q.** And the “URIC ACID” value [2]?
**A.** 0.97 mg/dL

**Q.** And the “ABSOLUTE BASOPHIL” value [3]?
**A.** 0 CELLS/uL

**Q.** And the “ABSOLUTE EOSINOPHIL” value [3]?
**A.** 109.67 CELLS/uL

**Q.** What about the “ABSOLUTE LYMPHOCYTE” value [3] of the same molecule?
**A.** 14631 CELLS/uL

**Q.** What about the “ABSOLUTE MONOCYTE” value [3] of the same molecule?
**A.** 211.33 CELLS/uL

**Q.** And the “ABSOLUTE SEGMENTED NEUTROPHIL” value [3]?
**A.** 914.67 CELLS/uL

**Q.** What about the BASOPHIL [3] of the same molecule?
**A.** 0%

**Q.** And the EOSINOPHIL [3]?
**A.** 0.67%

**Q.** And the “ERYTHROCYTE COUNT” value [3]?
**A.** 5.96 x10E6/uL

**Q.** What about the HEMATOCRIT [3] of the same molecule?
**A.** 38.03%

**Q.** What about the HEMOGLOBIN [3] of the same molecule?
**A.** 14 G/DL

**Q.** And the “LEUKOCYTE COUNT” value [3]?
**A.** 15.87 x10E3/uL

**Q.** And the LYMPHOCYTE [3]?
**A.** 92.33%

**Q.** What about the “MEAN CORPUSCULAR HEMOGLOBIN” value [3] of the same molecule?
**A.** 23.53 pg

**Q.** And the “MEAN CORPUSCULAR HEMOGLOBIN CONCENTRATION” value [3]?
**A.** 36.8 G/DL

**Q.** What about the “MEAN CORPUSCULAR VOLUME” value [3] of the same molecule?
**A.** 63.87 fL

**Q.** And the MONOCYTE [3]?
**A.** 1.33%

**Q.** And the NEUTROPHIL [3]?
**A.** 5.67%

**Q.** And the “NUCLEATED RED BLOOD CELLS” value [3]?
**A.** 0 /100WBC

**Q.** And the “PLATELET COUNT” value [3]?
**A.** 1509.33 x10E3/uL

**Q.** What about the “ALANINE AMINOTRANSFERASE” value [3] of the same molecule?
**A.** 49.33 u/L

**Q.** And the ALBUMIN [3]?
**A.** 4.4 G/DL

**Q.** And the “ALKALINE PHOSPHATASE” value [3]?
**A.** 350 u/L

**Q.** What about the “ASPARTATE AMINOTRANSFERASE” value [3] of the same molecule?
**A.** 82.33 u/L

**Q.** And the “BLOOD UREA NITROGEN” value [3]?
**A.** 15.33 mg/dL

**Q.** What about the “CARBON DIOXIDE” value [3] of the same molecule?
**A.** 31.33 mmol/L

**Q.** And the CHLORIDE [3]?
**A.** 99.33 MEQ/L

**Q.** What about the CHOLESTEROL [3] of the same molecule?
**A.** 96.33 mg/dL

**Q.** What about the “CREATINE PHOSPHOKINASE” value [3] of the same molecule?
**A.** 449.67 u/L

**Q.** And the CREATININE [3]?
**A.** 0.21 mg/dL

**Q.** What about the GLUCOSE [3] of the same molecule?
**A.** 146 mg/dL

**Q.** And the “LACTATE DEHYDROGENASE” value [3]?
**A.** 163.67 u/L

**Q.** What about the LIPASE [3] of the same molecule?
**A.** 10.33 u/L

**Q.** And the PHOSPHORUS [3]?
**A.** 11.9 mg/dL

**Q.** And the SODIUM [3]?
**A.** 142.1 MEQ/L

**Q.** And the “TOTAL BILIRUBIN” value [3]?
**A.** 0.2 mg/dL

**Q.** And the “TOTAL PROTEIN” value [3]?
**A.** 6.37 G/DL

**Q.** And the “URIC ACID” value [3]?
**A.** 2.03 mg/dL
